According to US4241069A, “3-Methylene flavanones and 3-methylene chromanones” (Miles Laboratories, Inc., priority 1979, dated 1980):
Values after ≈ are worked out from the molar mass of the structure shown.

Experiments:
A. fumigatus NRRL 165 = experiment: MIC, agar incorporation method; type: cell-based; conditions: Aspergillus fumigatus, NRRL165, 32° C., 48-72 hours, read-out: Minimal Inhibitory Concentration
Method: (§1) The compounds of the present invention were tested for their ability to inhibit the growth of microorganisms by in vitro tests. Generally the in vitro tests involve growing representative microorganisms under conditions favorable to such growth and measuring the effectiveness of one or more compounds in inhibiting or destroying the growth of the microorganisms. The microorganisms used include representative bacteria, fungi and yeasts.
(§2) A representative selection of the test microorganisms were cultured in a nutrient broth, such as, for example, Eugon, commercially available from Difco Laboratories, Detroit, Michigan. Bacteria and Candida species were cultured for 24 hours at 32°-37° C. and fungi were cultured for approximately one week at 32° C. Inocula were prepared by suspending the growth or spores from a slant culture in sufficient sterile normal (0.9 percent) saline or Eugon broth, to yield cell or spore concentrations of 1,000,000 cells per milliliter. Anaerobic bacteria were cultured for 48-72 hours at 32°-37° C. in a thioglycollate containing medium, for example, Fluid Thioglycollate medium or NIH thioglycollate broth, commercially available from Difco Laboratories.
(§3) The compounds of the present invention were tested for activity against bacteria, yeasts and fungi by the agar incorporation method described below. MA 1347, 3-(dimethylaminomethyl)flavanone (disclosed in U.S. Pat. No. 3,753,985) was used as a comparative standard along with controls for each solvent system used.
(§4) A series of agar plates containing two-fold dilutions of each compound to be tested, ranging in concentration from 100 to 3.1 mcg/ml of agar medium was prepared. Aliquots of each concentration (100, 50, 25, 12.5, 6.2, and 3.1) prepared in N,N-dimethylformamide or 50 percent aqueous DMF were added to liquid Eugon agar at 48° C. (one part test solution to 100 parts agar). In some cases, tests with further dilutions to 0.125 mcg/ml were conducted. The agar medium, containing the 3-methylene flavanone or chromanone compound to be tested, was then dispensed into petri dishes and allowed to solidify. The solidified plates were kept overnight at room temperatures to dry the surface of the agar.
(§5) The agar plates were then inoculated with a drop of the standardized cell or spore suspension. Inoculated plates were incubated at 32° C. The inhibition end-point or minimum inhibitory concentration (MIC) shown in Table D represent the lowest concentration of test compound which inhibited the growth of the microorganism. Visual determination of growth inhibition was used. Bacteria and yeast end-points were determined after 24 hours incubation; molds, dermatophytes and anaerobes after 48-72 hours incubation. MIC values shown as ranges represent the extremes found in repeat assays. Virtually all such values were written plus or minus one dilution, the accepted variation of a two-fold dilution assay.

[1] = system: Aspergillus niger ATCC 16404; experiment: MIC, agar incorporation method; type: cell-based; conditions: ATCC16404, 32° C., 48-72 hours, read-out: Minimal Inhibitory Concentration
Method: as §1, §2, §3, §4, §5

C. albicans NRRL Y-477 = experiment: MIC, agar incorporation method; type: cell-based; conditions: Candida albicans, NRRLY477, 32° C., 24 hours, read-out: Minimal Inhibitory Concentration
Method: as §1, §2, §3, §4, §5

C. guillermondii VM 42 = experiment: MIC, agar incorporation method; type: cell-based; conditions: 32° C., 24 hours; read-out: Minimal Inhibitory Concentration
Method: as §1, §2, §3, §4, §5

C. krusei VM 29B = experiment: MIC, agar incorporation method; type: cell-based; conditions: Pichia kudriavzevii, VM29B; 32° C., 24 hours; read-out: Minimal Inhibitory Concentration
Method: as §1, §2, §3, §4, §5

C. tropicalis NRRL Y1410 = experiment: MIC, agar incorporation method; type: cell-based; conditions: Candida tropicalis, NRRLY1410; 32° C., 24 hours; read-out: Minimal Inhibitory Concentration
Method: as §1, §2, §3, §4, §5

[2] = system: Candida albicans ATCC 10231; experiment: MIC, agar incorporation method; type: cell-based; conditions: ATCC10231, C. albicans ATCC 10231, 32° C., 24 hours, read-out: Minimal Inhibitory Concentration
Method: as §1, §2, §3, §4, §5

[3] = system: Escherichia coli ATCC 8739; experiment: MIC, agar incorporation method; type: cell-based; conditions: ATCC8739, 32° C., 24 hours, read-out: Minimal Inhibitory Concentration
Method: as §1, §2, §3, §4, §5

[4] = system: Microsporum gypseum ATCC 14683; experiment: MIC, agar incorporation method; type: cell-based; conditions: Nannizzia gypsea, ATCC14683, 32° C., 48-72 hours; read-out: Minimal Inhibitory Concentration
Method: as §1, §2, §3, §4, §5

[5] = system: Pseudomonas aeruginosa ATCC 14502; experiment: MIC, agar incorporation method; type: cell-based; conditions: ATCC14502, 32° C., 24 hours, read-out: Minimal Inhibitory Concentration
Method: as §1, §2, §3, §4, §5

[6] = system: Staphylococcus aureus ATCC 6538; experiment: MIC, agar incorporation method; type: cell-based; conditions: Staphylococcus aureus, ATCC6538; S. aureus ATCC 6538; 32° C., 24 hours; read-out: Minimal Inhibitory Concentration
Method: as §1, §2, §3, §4, §5

[7] = system: Streptococcus faecalis ATCC 10541; experiment: MIC, agar incorporation method; type: cell-based; conditions: Enterococcus faecalis, ATCC10541; 32° C., 24 hours; read-out: Minimal Inhibitory Concentration
Method: as §1, §2, §3, §4, §5

T. mentagrophytes CDC = experiment: MIC, agar incorporation method; type: cell-based; conditions: Trichophyton mentagrophytes, 32° C., 48-72 hours, read-out: Minimal Inhibitory Concentration
Method: as §1, §2, §3, §4, §5

T. mentagrophytes TM-2 = experiment: MIC, agar incorporation method; type: cell-based; conditions: Trichophyton mentagrophytes, TM2, 32° C., 48-72 hours, read-out: Minimal Inhibitory Concentration
Method: as §1, §2, §3, §4, §5

T. rubrum ATCC 10218 = experiment: MIC, agar incorporation method; type: cell-based; conditions: Trichophyton rubrum, ATCC10218; 32° C., 48-72 hours; read-out: Minimal Inhibitory Concentration
Method: as §1, §2, §3, §4, §5

[8] = system: Trichophyton mentagrophytes ATCC 4807; experiment: MIC, agar incorporation method; type: cell-based; conditions: ATCC4807, 32° C., 48-72 hours, read-out: Minimal Inhibitory Concentration
Method: as §1, §2, §3, §4, §5

S. aureus NRRL B2747 = experiment: MIC, agar incorporation method; type: cell-based, Staphylococcus aureus; conditions: Staphylococcus aureus, NRRLB2747, 32° C., 24 hours, read-out: Minimal Inhibitory Concentration
Method: as §1, §2, §3, §4, §5

A. fumigatus NRRL 163 = experiment: MIC, agar incorporation method; type: cell-based; conditions: Aspergillus fumigatus, NRRL163, NRRL 163; 32° C., 48-72 hours; read-out: Minimal Inhibitory Concentration
Method: as §1, §2, §3, §4, §5

[9] = system: Propionobacterium acnes ATCC 6919; experiment: MIC, agar incorporation method, anaerobic; type: cell-based; conditions: 48 hours at 35° C., GasPak Anaerobic Jar, read-out: Minimal Inhibitory Concentration
Method: as §1, §2, §3, §4, §5
*Anaerobic: 48 hours incubation at 35° C. GasPak Anaerobic Jar

SMILES | MIC (A. fumigatus NRRL 165) | MIC [1] | MIC (C. albicans NRRL Y-477) | MIC (C. guillermondii VM 42) | MIC (C. krusei VM 29B) | MIC (C. tropicalis NRRL Y1410) | MIC [2] | MIC [3] | MIC [4] | MIC [5] | MIC [6] | MIC [7] | MIC (T. mentagrophytes CDC) | MIC (T. mentagrophytes TM-2) | MIC (T. rubrum ATCC 10218) | MIC [8] | MIC (S. aureus NRRL B2747) | MIC (A. fumigatus NRRL 163) | MIC [9]
C=C1C(=O)c2ccccc2OC1c1cccc(OC)c1 (stereo not drawn) [Ex. 7, 3'-methoxy-3-methylene flavanone] | > 100 µg/mL | > 100 µg/mL | 100 µg/mL (≈ 376 µM) | > 100 µg/mL | 100 µg/mL (≈ 376 µM) | > 100 µg/mL | > 100 µg/mL | > 100 µg/mL | 25 µg/mL (≈ 93.9 µM) | > 100 µg/mL | 25 µg/mL (≈ 93.9 µM) | 100 µg/mL (≈ 376 µM) | 25 µg/mL (≈ 93.9 µM) | 25 µg/mL (≈ 93.9 µM) | 12.5 µg/mL (≈ 46.9 µM) | 25 µg/mL (≈ 93.9 µM) | 25 µg/mL (≈ 93.9 µM) |  | 
C=C1C(=O)c2ccccc2OC1c1ccc(OC)cc1 (stereo not drawn) [Ex. 8, 4'-methoxy-3-methylene flavanone] |  | 100 µg/mL (≈ 376 µM) | 100 µg/mL (≈ 376 µM) | 100 µg/mL (≈ 376 µM) | 50 µg/mL (≈ 188 µM) | > 100 µg/mL | 100 µg/mL (≈ 376 µM) | > 100 µg/mL | 12.5 µg/mL (≈ 46.9 µM) | > 100 µg/mL | 12.5 µg/mL (≈ 46.9 µM) | > 100 µg/mL | 12.5 µg/mL (≈ 46.9 µM) | 12.5 µg/mL (≈ 46.9 µM) | 25 µg/mL (≈ 93.9 µM) | 12.5 µg/mL (≈ 46.9 µM) | 12.5 µg/mL (≈ 46.9 µM) | 50 µg/mL (≈ 188 µM) | > 100 µg/mL
C=C1C(=O)c2ccccc2OC1c1ccc(N(C)C)cc1 (stereo not drawn) [Ex. 11, 4'-dimethylamino-3-methylene flavanone] | > 100 µg/mL | > 100 µg/mL | > 100 µg/mL | > 100 µg/mL | 100 µg/mL (≈ 358 µM) | > 100 µg/mL | > 100 µg/mL | > 100 µg/mL | 25 µg/mL (≈ 89.5 µM) | > 100 µg/mL | 50 µg/mL (≈ 179 µM) | > 100 µg/mL | 25 µg/mL (≈ 89.5 µM) | 25 µg/mL (≈ 89.5 µM) | 12.5 µg/mL (≈ 44.7 µM) | 25 µg/mL (≈ 89.5 µM) | 50 µg/mL (≈ 179 µM) |  | 

These reach a lower MIC [1]. Values come first.

MIC (A. fumigatus NRRL 165) | MIC [1] | MIC (C. albicans NRRL Y-477) | MIC (C. guillermondii VM 42) | MIC (C. krusei VM 29B) | MIC (C. tropicalis NRRL Y1410) | MIC [2] | MIC [3] | MIC [4] | MIC [5] | MIC [6] | MIC [7] | MIC (T. mentagrophytes CDC) | MIC (T. mentagrophytes TM-2) | MIC (T. rubrum ATCC 10218) | MIC [8] | MIC (S. aureus NRRL B2747) | MIC (A. fumigatus NRRL 163) | MIC [9] | SMILES
50 µg/mL (≈ 159 µM) | 50 µg/mL (≈ 159 µM) | 25 µg/mL (≈ 79.3 µM) | 25 µg/mL (≈ 79.3 µM) | 25 µg/mL (≈ 79.3 µM) | 25 µg/mL (≈ 79.3 µM) | 25 µg/mL (≈ 79.3 µM) | > 100 µg/mL | 6.2 µg/mL (≈ 19.7 µM) | > 100 µg/mL | ≤ 3.1 µg/mL | 25 µg/mL (≈ 79.3 µM) | 12.5 µg/mL (≈ 39.7 µM) | 6.2 µg/mL (≈ 19.7 µM) | 6.2 µg/mL (≈ 19.7 µM) | 6.2 µg/mL (≈ 19.7 µM) | 6.2 µg/mL (≈ 19.7 µM) |  |  | C=C1C(=O)c2ccccc2OC1c1ccc(Br)cc1 (stereo not drawn) [Ex. 6, 4'-bromo-3-methylene flavanone]
 | 25 µg/mL (≈ 83.1 µM) | 50 µg/mL (≈ 166 µM) | > 100 µg/mL | 25 µg/mL (≈ 83.1 µM) | > 100 µg/mL | 50 µg/mL (≈ 166 µM) | > 100 µg/mL | 6.2 µg/mL (≈ 20.6 µM) | > 100 µg/mL | ≤ 3.1 µg/mL | 50 µg/mL (≈ 166 µM) | 12.5 µg/mL (≈ 41.6 µM) | 12.5 µg/mL (≈ 41.6 µM) | 12.5 µg/mL (≈ 41.6 µM) | 12.5 µg/mL (≈ 41.6 µM) | 6.2 µg/mL (≈ 20.6 µM) | 12.5 µg/mL (≈ 41.6 µM) | ≤ 100 µg/mL | C=C1C(=O)c2ccc(OC)cc2OC1c1ccc(Cl)cc1 (stereo not drawn) [Ex. 18, 4'-chloro-7-methoxy-3-methylene flavanone]
